Measurements: ChEMBL document CHEMBL6092126, “Inhibitors of Rickettsia prowazekii methionine aminopeptidase 1 identified from the Pandemic Response Box” (Bioorg Med Chem Lett, 2024)
pIC50: −log10 of the molar value.

Tests used:
[1] = Inhibition of Rickettsia prowazekii methionine aminopeptidase 1 using methionine-aminomethylcoumarin as substrate preincubated for 1 hrs followed by substrate addition and measured after 30 mins by fluorescence based plate reader analysis
[2] = Inhibition of Rickettsia prowazekii methionine aminopeptidase 1 using methionine-aminomethylcoumarin as substrate at 10 uM preincubated for 1 hrs followed by substrate addition and measured after 30 mins by fluorescence based plate reader analysis relative to control; conditions: time 1.5 hrs

Row | SMILES | pIC50 [1] | inhibition [2]
1 | O=C(CP(=O)(O)O)NCCc1cccc(Oc2ccccc2)c1 | 5.15 | > 60%
2 | O=C(NCc1ccc(F)cc1)c1c(O)c2ncccc2[nH]c1=O | 5.72 | > 60%
3 | Oc1cccc(C(Nc2nccs2)c2ccc3cccnc3c2O)c1 (centres undefined) | 5.85 | > 60%
4 | Cc1cc(-c2ccccc2)c(C(=O)C(=O)Nc2ccc(N3CCN(c4ncc(F)cn4)CC3)cc2)n1C [OLOROFIM] | 5.38 | > 60%
5 | O=C(O)c1ccc(-c2ccccc2Cl)o1 | 5.62 | –
6 | Fc1ccc(-n2cc(Cn3c(-c4cccc(F)c4)nc4ccccc43)nn2)cc1 | 5.39 | > 60%
7 | COc1ccc(C)cc1NC(=O)c1ccc(S(=O)(=O)N2CCCCC2)cc1 | 5.62 | > 60%
8 | O=C(O)c1ccc(-n2nc(-c3ccccc3O)nc2-c2ccccc2O)cc1 [DEFERASIROX] | 5.68 | > 60%
9 | O=[N+]([O-])/C(Br)=C/c1ccc(Br)o1 | 5.54 | > 60%
10 | CCCCCCC1c2ccc(O)cc2Oc2cc(O)ccc21 | 5.00 | > 60%
11 | Nc1nc(=O)[nH]cc1F [FLUCYTOSINE] | 5.16 | > 60%
12 | COc1cc(Cc2cnc(N)nc2N)cc(OC)c1OC [TRIMETHOPRIM] | 5.29 | > 60%
13 | Cc1ccc(Oc2ccccc2-c2csc(N=C3NCCCN3)n2)c(C)c1 [ABAFUNGIN] | 5.27 | > 60%
14 | O=C(Nc1nnc(-c2ccc(Cl)cc2)o1)c1nc2ccccc2s1 | 5.26 | > 60%
15 | CONC(=N)c1ccc(-c2ccc(-c3ccc(C(=N)NOC)cc3)o2)cc1 [PAFURAMIDINE] | 5.54 | > 60%
16 | O=C1c2cccc3cccc(c23)C(=O)N1CC1CO1 (centres undefined) | 5.32 | > 60%
17 | C[C@@H](c1nc(-c2ccc(C#N)cc2)cs1)[C@](O)(Cn1cncn1)c1ccc(F)cc1F [RAVUCONAZOLE] | 5.28 | > 60%
18 | O=c1cc(Nc2ccc3ccccc3c2)[nH]c(=O)[nH]1 | 5.74 | > 60%
19 | CN(C)CCCNC(=O)c1ccc(-c2cc(O)c3ncccc3c2)cc1 | 6.47 | > 60%
20 | CN(O)C(=O)c1cc2c(CN3CCC[C@H]3C(N)=O)cn(Cc3ccc(F)cc3)c2cn1 | 5.38 | > 60%
